Laboratory results reported in patent US20260174780A1, “BISMUTH-THIOL COMPOSITIONS AND METHODS FOR TREATING INFLAMMATORY DISEASES” (Microbion Corporation, priority 2022, published 2026).

Legend:
[1] = tested on: FITC-induced contact hypersensitivity; test: FITC-induced contact hypersensitivity in mice (ear swelling, histopathology, ear cytokines); format: in vivo, BALB/c mice; details: Group 3, 1 mg/mL topical; mean ± standard deviation
Procedure: Protocol: Male BALB/c mice at 8 weeks old are used in the study.
All animals, except those in Group 1 (Sham), were sensitized topically (TOP) on the shaved abdominal skin with 200 μL of 0.5% Fluorescein Isothiocyanate (FITC) dissolved in 20% tributyrin in acetone on Days 1 and 2. On Day 7, animals were challenged by applying 20 μL of 0.5% FITC solution onto both sides of the right ear. Animals in Group 1 received nothing.
Vehicle, BisEDT test articles and reference compound (tacrolimus) were administered topically (TOP) once daily (QD) from Day 6 to Day 9 for 4 consecutive days (1 hour before FITC challenge on Day 7). The vehicle for BisEDT was phosphate-buffered saline (PBS).
• 2.5 mg/mL BisEDT topical suspension • 1.25 mg/mL BisEDT topical suspension—prepared as a 1:1 dilution of 2.5 mg/mL BisEDT topical suspension in sterile water and vortexed to ensure homogeneity
Analysis: Ear swelling was measured by an experimenter blinded to treatment group, with a dial thickness micrometer gauge as an index of inflammation 30 min before dosing on Days 7, 8, 9 and 10. On Day 10, ear swelling was measured at 24 hours after the last dosing. Ear edema was calculated by subtracting the thickness of Day 7 (normal control) from Day n (treated ear). Percentage inhibition was calculated according to the formula: (Ic−It)/Ic×100, where Ic and It refer to the increase of ear thickness (mm) both in the control and treated animals. Body weight was recorded daily during the study period.
The animals were sacrificed on Day 10 and the ears were then harvested and weighed. Half of the right ear was fixed in 10% formalin for histopathology, and the other half was processed for cytokine measurement (IL-18, IL-6, and IL-10) using ThermoFisher Mouse ProcartaPlex Kit by Luminex.

[2] = tested on: lung tissue of M. abscessus infected mice; test: Lung histopathology in chronic M. abscessus infection study; format: in vivo, SCID/Beige mice; details: amikacin-treated (100 mg/kg/day), FIG. 5B
Procedure: After 28 days of treatment with BisEDT, animals were euthanized by CO2 and secondary cardiac puncture to collect whole blood for quantitation of BisEDT concentration. Lungs and spleens from the CFU mice were homogenized with 1:1 H2O:Dey-Englev neutralizing broth to deactivate BisEDT. CFUs were determined after serial dilution. Mice for histology and the lung pair split, one half in formalin the other half weighed and snap frozen in liquid N2 to determine tissue concentration of BisEDT.
Samples for histology were processed by the Veterinary Diagnostic Laboratory. Slides were stained with hematoxylin-eosin (HE stain) for general pathology as well as a slide for acid-fast stain to highlight the mycobacterial infection in lung tissue.

[3] = tested on: Hypo-InflammaSkin models; test: Ex vivo human skin model of psoriasis (Hypo-InflammaSkin), cytokine release in culture medium; format: cell-based; details: betamethasone 0.05% topical 25 μL daily Day 0-6
Source text: Background: InflammaSkin® model is a validated psoriasis-like model developed to reproduce key features of pro-Th17/Th1 inflammation associated with psoriasis. It relies on the in situ activation of resident T-cell of normal skin biopsies and their further polarization into Th17/Th1 phenotype with the supplementation of culture medium with a cocktail of pro-inflammatory cytokines.
Model production and culture: 2 HypoSkin models of 15 mm in diameter (1.76 cm^2) were produced from 1 donor and cultured with 2 mL standard HypoSkin® medium. 20 Hypo-InflammaSkin models were produced from 1 donor by inducing in sit activation and Th17/Th1 polarization of skin resident T cells with proprietary cocktail and cultured with 2 mL Hypo-InflammaSkin® culture medium. The total treatable surface area of the models was 113 mm^2, and dosing of BisEDT took this into account based on dosing of the topical treatment. Models were maintained in standard cell culture conditions for the whole culture duration at 37° C., 5% CO2 and water saturation, with appropriate culture medium renewed every day.
Treatment Groups: Model Treatment: (1) HypoSkin® untreated control; (2) Hypo-InflammaSkin® untreated control; (3) topical betamethasone (positive control); (4) topical BisEDT—2.5 mg/mL (treatment applied every day from day 0 to 6; (5) topical BisEDT—1.25 mg/mL (treatment applied every day from day 3 to 6). N=3 per treatment group, except N=5 for Hypo-InflammaSkin® and N=1 for HypoSkin®.
Topical Treatment—Betamethasone (control): 25 μL of betamethasone was topically applied onto the surface of each skin model. Topical application was performed from Day 0 to Day 6 after removal of the previous treatment residues using a cotton swab.
Topical Treatment—BisEDT: 36 μL of the test compound was topically applied onto the surface of each skin model, massaging across the entire surface area for 1 minute, using a parafilm wrapped cotton swab; the compound was left on the skin. Topical application was performed from Day 0 to Day 6 (Treatment Group 4) or Day 3 to Day 6 (Treatment Group 5). A total of 9 models were topically treated.
Culture Media—culture media was collected on Day 3 prior to treatment application and on Day 7 and frozen at −80° C. A total of 42 culture media samples were collected.
IL-22 release: IL-22 release was measured in culture media using ELISA Human IL-22 Quantikine Kit (Bio-techne, ref D2200). Only samples from control conditions 1 to 3 were analyzed to assess donor's response to T cell activation. Each sample was analyzed in duplicate.
MSD Immunoassay—cytokine release (IL-2, IL-13, IL-15, IL-17A, IL-22, TNF-α, INF-γ, MIP-1β, and […]) in the culture medium was measured using the V-PLEX Plus Human Cytokine Kit (KI5089G, MesoScale Discovery) (FIGS. 13D-13S).

C=CC[C@@H]1/C=C(\C)C[C@H](C)C[C@H](OC)[C@H]2O[C@@](O)(C(=O)C(=O)N3CCCC[C@H]3C(=O)O[C@H](/C(C)=C/[C@@H]3CC[C@@H](O)[C@H](OC)C3)[C@H](C)[C@@H](O)CC1=O)[C@H](C)C[C@@H]2OC [Tacrolimus, tacrolimus]
Hyperkeratosis (lesion score) [1]: 0.88 ± 0.64
Hyperplasia (lesion score) [1]: 1.63 ± 0.52
Inflammation (lesion score) [1]: 1.38 ± 0.52
Necrosis (lesion score) [1]: 0.13 ± 0.35
Total histological score [1]: 4.00 ± 1.69

NCC[C@H](O)C(=O)N[C@@H]1C[C@H](N)[C@@H](O[C@H]2O[C@H](CN)[C@@H](O)[C@H](O)[C@H]2O)[C@H](O)[C@H]1O[C@H]1O[C@H](CO)[C@@H](O)[C@H](N)[C@H]1O [amikacin, reference compound]
lung histomorphologic observation [2]: infiltration of mononuclear phagocytes, interstitial edema, and interstitial hemorrhage

C[C@H]1C[C@H]2[C@@H]3CCC4=CC(=O)C=C[C@]4(C)[C@@]3(F)[C@@H](O)C[C@]2(C)[C@@]1(O)C(=O)CO [betamethasone, reference compound]
IL-22 release, average concentration (ELISA) [3]: 16.67 µg/mL
